Legend:
Type in all cases: cell-based
[1] = test system: K562 (leukaemia) cells; assay: cytotoxicity test (MTT), IC50 after 72 hours incubation
Method: (§1) IC50 (the concentration inhibiting the proliferation of 50% of cells) of these 4 new compounds presented is identified by cytotoxicity tests in K562 (leukaemia) and ECV304 (endothelial) cells. Subsequently, it is studied to understand pathway through which the death of the cells is occurred (the mechanism of action) after the cells are treated for 72 hours at these concentrations. The apoptosis is analysed with immununocytochemical methods and flow cytometry and DNA fragmentation is analysed with diphenylamine reaction. […] DNA fragmentation is found high in all experiment groups (70-80%). These rates are compatible with IC50 obtained with MTT test because IC50 is the dose which kills the 50% of the cells. […] Furthermore, this rate is compatible with the percentage of total dead cells (52-64 %) which is the addition of apoptotic and necrotic cells obtained by annexin/PI dyeing.

[2] = test system: ECV304 (endothelial) cells; assay: as above; settings: incubated for 72 hours
Method: as §1

[3] = test system: ECV304; assay: DNA fragmentation by diphenylamine reaction; settings: ECV304, end of 72 hours at identified IC50 concentrations
Method: (§2) IC50 (the concentration inhibiting the proliferation of 50% of cells) of these 4 new compounds presented is identified by cytotoxicity tests in K562 (leukaemia) and ECV304 (endothelial) cells. Subsequently, it is studied to understand pathway through which the death of the cells is occurred (the mechanism of action) after the cells are treated for 72 hours at these concentrations. The apoptosis is analysed with immununocytochemical methods and flow cytometry and DNA fragmentation is analysed with diphenylamine reaction. […] The inventors also analysed DNA fragmentation rates occurred in cells at the end of 72 hours at identified IC50 concentrations.

[4] = test system: K562; assay: DNA fragmentation by diphenylamine reaction; settings: K562, end of 72 hours at identified IC50 concentrations
Method: as §2

[5] = test system: K562 cells; assay: flow cytometry with Annexin V and PI dyeing (apoptosis / necrosis); settings: K562, 72 hours at IC50 concentration; for Living cell (%) / Necrotic cell (%) / Post- apoptotic cell (%) / Pre- apoptotic cell (%): Annexin V and PI; for Dead cell (%): addition of apoptotic and necrotic cells
Method: The Figure 2 gives the flow cytometry images of K562 cells, undergoing pre-apoptosis, post-apoptosis and necrosis, which are dyed with Annexin V and PI, after being incubated with thiosemicarbazones of the invention for 72 hours. Herein the images are as follows; A) Control, B) Compound I (0.6µg/ml), C) Compound II (0.6µg/ml), D) […], and E) Compound IV (0.1µg/ml). […] The inventors have characterized cells treated with compounds I-IV in the conditions of Figure 2 in order to better observe the mechanism of action of thiosemicarbazones presented in the current invention.

[6] = K562, as listed in Table 3, rounded, the concentration applied in the flow cytometry
[7] = K562 cells, incubated for 72 hours

COc1ccc2c(c1)[O][Ni][O]c1cc(O)ccc1C=NN=C(SC)N=C2 [III, N(1)-4-hydroxysalicylidene-N(4)-4-methoxysalicylideneisothio-semicarbazidato Nickel (II)]
IC50 [1, 6]: 0.6 µg/mL | IC50 [1, 7]: 0.65 microgram/ml | IC50 [2]: >5 microgram/ml | DNA fragmentation % [3]: 22±1.7% | DNA fragmentation % [4]: 75±1.4% | Apoptosis / Necrosis ratio [5]: 11.82 | Living cell (%) [5]: 36.11% | Necrotic cell (%) [5]: 3.17% | Post- apoptotic cell (%) [5]: 23.23% | Pre- apoptotic cell (%) [5]: 37.5% | Dead cell (%) [5]: 63.89%

Monochloro-N(1)-3--hydroxysalicylidene-N(4)-4-methox salicylideneisothiosemicarbazidato Iron (III) [Compound II]
IC50 [1, 6]: 0.6 µg/mL | IC50 [1, 7]: 0.62 microgram/ml | IC50 [2]: >5 microgram/ml | DNA fragmentation % [3]: 18±2.1% | DNA fragmentation % [4]: 79±0.7% | Apoptosis / Necrosis ratio [5]: 9.80 | Living cell (%) [5]: 47.4% | Necrotic cell (%) [5]: 3.15% | Post- apoptotic cell (%) [5]: 18.54% | Pre- apoptotic cell (%) [5]: 30.9% | Dead cell (%) [5]: 52.6%

COc1ccc2c(c1)[O][Ni][O]c1c(O)cccc1C=NN=C(SC)N=C2 [Compound I, N(1)-3-hydroxysalicylidene-N(4)-4-methoxysalicylideneisothio-semicarbazidato Nickel (II)]
IC50 [1, 6]: 0.6 µg/mL | IC50 [1, 7]: 0.61 microgram/ml | IC50 [2]: >5 microgram/ml | DNA fragmentation % [3]: 20±0.5% | DNA fragmentation % [4]: 80±1.4% | Apoptosis / Necrosis ratio [5]: 13.56 | Living cell (%) [5]: 35.18% | Necrotic cell (%) [5]: 2.57% | Post- apoptotic cell (%) [5]: 27.39% | Pre- apoptotic cell (%) [5]: 34.85% | Dead cell (%) [5]: 64.82%

COc1ccc2c(c1)[O][Fe]([Cl])[O]c1cc(O)ccc1C=NN=C(SC)N=C2 [Compound IV, Monochloro-N(1)-4-hydroxysalicylidene-N(4)-4-methoxy-salicylideneisothiosemicarbazidato Iron (III)]
IC50 [1, 6]: 0.1 µg/mL | IC50 [1, 7]: 0.1 microgram/ml | IC50 [2]: >5 microgram/ml | DNA fragmentation % [3]: 28±2.4% | DNA fragmentation % [4]: 84±1.4% | Apoptosis / Necrosis ratio [5]: 17.77 | Living cell (%) [5]: 41.07% | Necrotic cell (%) [5]: 2.11% | Post- apoptotic cell (%) [5]: 19.32% | Pre- apoptotic cell (%) [5]: 37.5% | Dead cell (%) [5]: 58.93%

From EP2881399B1, “New thiosemicarbazone chelates having anticancer activity” (priority 2013, dated 2015)
